Test results: article PMC10999543, “Identification of kinase modulators as host-directed therapeutics against intracellular methicillin-resistant Staphylococcus aureus” (Frontiers in Cellular and Infection Microbiology, 2024)
Read-outs that look alike come from different tables or passages of the source.

Experiments:
HeLa cells = experiment: Compound screen by flow cytometry: HeLa cell count as surrogate readout of cell viability (z-scoreHeLa); format: cell-based, human
Outline: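 HeLa cells were infected with GFP-MRSA (mean MOI 6.8 ± 4.6) for 1 h, and extracellular bacteria were killed with 30 µg/ml gentamicin. Cells were then incubated overnight with kinase inhibitors in 5 µg/ml gentamicin, in triplicate against DMSO controls. Flow-cytometric cell count served as a viability surrogate, expressed as a plate z-score.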

intracellular MRSA = format: cell-based, Staphylococcus aureus; settings: for %GFP+ rep 1 / z-scoreMRSA+ rep 1: replicate 1; for %GFP+ rep 2 / z-scoreMRSA+ rep 2: replicate 2; for %GFP+ rep 3 / z-scoreMRSA+ rep 3: replicate 3; for z-scoreMRSA+ mean: mean of 3 replicates
Outline: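 HeLa, MRSA-GFP at MOI ~6.8, 1 h infection; gentamicin 30 µg/ml for 15 min; inhibitor plus gentamicin 5 µg/ml overnight, 37°C/5% CO2; triplicate plates; FACS %GFP+ and cell count; hit = z ≤ -2 MRSA+, z ≥ -3 count.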

[1] = PKIS compounds raw data, replicate 1, HeLa cell count
[2] = PKIS compounds raw data, replicate 2, HeLa cell count
[3] = PKIS compounds raw data, replicate 3, HeLa cell count
[4] = compound screen, HeLa cell count, mean of 3 replicates
[5] = compound screen, HeLa cell count, replicate 1
[6] = compound screen, HeLa cell count, replicate 2
[7] = compound screen, HeLa cell count, replicate 3
[8] = PKIS compounds raw data, MRSA-infected HeLa cells
[9] = Yes/No: effect without cell death
[10] = compound screen, MRSA-infected HeLa cells
[11] = PKIS compound screen raw data, HeLa cell count, replicate 1
[12] = PKIS compound screen raw data, HeLa cell count, replicate 2
[13] = PKIS compound screen raw data, HeLa cell count, replicate 3
[14] = PKIS compound screen, HeLa cell count, mean of 3 replicates
[15] = PKIS compound screen, HeLa cell count, replicate 1
[16] = PKIS compound screen, HeLa cell count, replicate 2
[17] = PKIS compound screen, HeLa cell count, replicate 3
[18] = PKIS compound screen, Yes/No call
[19] = PKIS compound screen, Yes/No call on z-scoreHeLa
[20] = PKIS compound screen, mean of 3 replicates
[21] = PKIS compound screen, replicate 1
[22] = PKIS compound screen, replicate 2
[23] = PKIS compound screen, replicate 3
[24] = PKIS compound screen raw data, MRSA-infected HeLa cells
[25] = PKIS compound screen, MRSA-infected HeLa cells
[26] = PKIS compound screen, Yes/No call (effect without cell death)
[27] = PKIS compound screen, Yes/No call on z-scoreMRSA+

Compound	cell count rep 1 (HeLa cells; [1])	cell count rep 2 (HeLa cells; [2])	cell count rep 3 (HeLa cells; [3])	cell death (HeLa cells; Yes/No call from z-scoreHeLa)	z-scoreHeLa mean (HeLa cells; [4])	z-scoreHeLa rep 1 (HeLa cells; [5])	z-scoreHeLa rep 2 (HeLa cells; [6])	z-scoreHeLa rep 3 (HeLa cells; [7])	%GFP+ rep 1 (intracellular MRSA; [8]) [%]	%GFP+ rep 2 (intracellular MRSA; [8]) [%]	%GFP+ rep 3 (intracellular MRSA; [8]) [%]	%GFP+ rep 1 (intracellular MRSA; [24]) [%]	%GFP+ rep 2 (intracellular MRSA; [24]) [%]	%GFP+ rep 3 (intracellular MRSA; [24]) [%]	z-scoreMRSA+ mean (intracellular MRSA; [25])	z-scoreMRSA+ rep 1 (intracellular MRSA; [25])	z-scoreMRSA+ rep 2 (intracellular MRSA; [25])	z-scoreMRSA+ rep 3 (intracellular MRSA; [25])	hit (intracellular MRSA; [26])	effect (intracellular MRSA; [27])	other results
Nc1nc(-c2ccc3c(c2)C(=Cc2cc(Br)c(O)c(Br)c2)C(=O)N3)cs1 [GW407323A]	5658	5858	9419	No	1.06	0.80	1.20	1.18	16.4	13.5	13.8										effect (intracellular MRSA; Yes/No call from z-scoreMRSA+): No; hit (intracellular MRSA; [9]): No; z-scoreMRSA+ mean (intracellular MRSA; [10]): 0.14; z-scoreMRSA+ rep 1 (intracellular MRSA; [10]): 1.03; z-scoreMRSA+ rep 2 (intracellular MRSA; [10]): 0.0015; z-scoreMRSA+ rep 3 (intracellular MRSA; [10]): -0.62
O=C(Nc1n[nH]c2nc(-c3ccccc3)c(Br)cc12)C1CC1 [SB-708998]	5956	6708	6327						30.9	25.1	29.3	14.4	13.9	15.7	-1.40	-1.17	-1.50	-1.51	No	No	cell count rep 1 (HeLa cells; [11]): 29154; cell count rep 2 (HeLa cells; [12]): 28936; cell count rep 3 (HeLa cells; [13]): 20350; z-scoreHeLa mean (HeLa cells; [14]): 0.24; z-scoreHeLa rep 1 (HeLa cells; [15]): -0.18; z-scoreHeLa rep 2 (HeLa cells; [16]): 0.63; z-scoreHeLa rep 3 (HeLa cells; [17]): 0.28; cell death (HeLa cells; [18]): No; cell death (HeLa cells; [19]): No; z-scoreHeLa mean (HeLa cells; [20]): 0.29; z-scoreHeLa rep 1 (HeLa cells; [21]): -0.0543; z-scoreHeLa rep 2 (HeLa cells; [22]): 0.46; z-scoreHeLa rep 3 (HeLa cells; [23]): 0.46; effect (intracellular MRSA; [18]): No; z-scoreMRSA+ mean (intracellular MRSA; PKIS compound screen): 0.31; z-scoreMRSA+ rep 1 (intracellular MRSA; PKIS compound screen): 0.75; z-scoreMRSA+ rep 2 (intracellular MRSA; PKIS compound screen): -0.18; z-scoreMRSA+ rep 3 (intracellular MRSA; PKIS compound screen): 0.38
Cc1nnc(-c2ccc(C)c(-c3ccc(C(=O)Nc4ccc(NS(C)(=O)=O)cc4)cc3)c2)o1 [GW702865X]	4074	4158	6358	No	-0.34	-0.64	-0.08	-0.29	15.5	15.8	15.0										effect (intracellular MRSA; Yes/No call from z-scoreMRSA+): No; hit (intracellular MRSA; [9]): No; z-scoreMRSA+ mean (intracellular MRSA; [10]): 0.42; z-scoreMRSA+ rep 1 (intracellular MRSA; [10]): 0.75; z-scoreMRSA+ rep 2 (intracellular MRSA; [10]): 0.77; z-scoreMRSA+ rep 3 (intracellular MRSA; [10]): -0.26
O=C1Nc2ccc(C(=O)c3ccco3)cc2C1=Cc1cc(Cl)c(O)c(Cl)c1 [GW406108X]												19.1	21.6	22.3	0.69	0.39	0.93	0.76	No	No	cell count rep 1 (HeLa cells; [11]): 28408; cell count rep 2 (HeLa cells; [12]): 39603; cell count rep 3 (HeLa cells; [13]): 51964; z-scoreHeLa mean (HeLa cells; [14]): 1.33; z-scoreHeLa rep 1 (HeLa cells; [15]): 1.26; z-scoreHeLa rep 2 (HeLa cells; [16]): 0.90; z-scoreHeLa rep 3 (HeLa cells; [17]): 1.82; cell death (HeLa cells; [19]): No
Cn1cc(-c2ccc3c(c2)CCN3C(=O)Cc2ccccc2Cl)c2c(N)ncnc21 [GSK2608885A]	5830	6021	5398						27.6	29.0	29.1								No		cell death (HeLa cells; [18]): No; z-scoreHeLa mean (HeLa cells; [20]): -0.08; z-scoreHeLa rep 1 (HeLa cells; [21]): -0.13; z-scoreHeLa rep 2 (HeLa cells; [22]): 0.00891; z-scoreHeLa rep 3 (HeLa cells; [23]): -0.13; effect (intracellular MRSA; [18]): No; z-scoreMRSA+ mean (intracellular MRSA; PKIS compound screen): 0.34; z-scoreMRSA+ rep 1 (intracellular MRSA; PKIS compound screen): 0.11; z-scoreMRSA+ rep 2 (intracellular MRSA; PKIS compound screen): 0.57; z-scoreMRSA+ rep 3 (intracellular MRSA; PKIS compound screen): 0.34
SB-739245-AC												12.9	15.6	16.3	-1.17	-1.57	-0.88	-1.06	No	No	cell count rep 1 (HeLa cells): 23497; cell count rep 2 (HeLa cells): 32010; cell count rep 3 (HeLa cells): 40050; cell death (HeLa cells): No; z-scoreHeLa mean (HeLa cells): -0.0274; z-scoreHeLa rep 1 (HeLa cells): 0.51; z-scoreHeLa rep 2 (HeLa cells): -0.52; z-scoreHeLa rep 3 (HeLa cells): -0.0761
COc1cc(Nc2ncc(-c3ccccc3)o2)cc(OC)c1OC [GW627512B]	2360	2993	4653	No	-1.42	-2.18	-0.96	-1.10	11.0	12.1	12.6										effect (intracellular MRSA; Yes/No call from z-scoreMRSA+): No; hit (intracellular MRSA; [9]): No; z-scoreMRSA+ mean (intracellular MRSA; [10]): -0.71; z-scoreMRSA+ rep 1 (intracellular MRSA; [10]): -0.70; z-scoreMRSA+ rep 2 (intracellular MRSA; [10]): -0.47; z-scoreMRSA+ rep 3 (intracellular MRSA; [10]): -0.97
NS(=O)(=O)c1cccc(-c2cc3ccncc3cc2OCc2ccccc2)c1 [GSK980961A]												13.7	14.8	15.5	-1.25	-1.32	-1.12	-1.31	No	No	cell count rep 1 (HeLa cells; [11]): 14876; cell count rep 2 (HeLa cells; [12]): 28602; cell count rep 3 (HeLa cells; [13]): 41262; z-scoreHeLa mean (HeLa cells; [14]): -0.61; z-scoreHeLa rep 1 (HeLa cells; [15]): -0.80; z-scoreHeLa rep 2 (HeLa cells; [16]): -1.15; z-scoreHeLa rep 3 (HeLa cells; [17]): 0.12; cell death (HeLa cells; [19]): No
